The text below walks through data of patent publication US8623903B2, “Indolecarboxylic acid derivative having PGD2 receptor antagonistic activity” (Shionogi & Co., Ltd., priority 2005, dated 2014).

Assay [1] concerns the target T1, DP receptor (Homo sapiens (Human), UniProt Q13258). The assay is described as follows: cAMP assay with washed platelets (DP inhibitory activity in vitro). Conditions: 100 nM of PGD2, cAMP by HTRF, read-out: IC50 (50% DP-inhibitory concentration in the cAMP assay). It is filed as cell-based. How it is done: 1) Preparation of Platelet and a Method of cAMP Assay
30 mL of peripheral blood was collected from a healthy volunteer using a syringe containing one ninth amount of 3.8% sodium citrate. After being centrifuged at 180 g for 10 minutes at room temperature, a supernatant was collected and used as Platelet Rich Plasma (PRP). The resulting PRP was washed with wash buffer and centrifuged three times (Washed Platelet: WP) and platelets were counted by a microcell counter. WP was added to a plate in amount of 1.5×10^8/assay and the plate was treated with 3-isobutyl-1-methylxanthin (IBMX; 0.5 mM) for 5 minutes. A reaction was initiated by adding 100 nM of PGD2 5 min after an addition of a test compound. The reaction was terminated with an addition of 1N hydrochloric acid after 2 minutes and the cells were destructed using 12% triton X-100. An amount of cAMP in the supernatant was assayed by Homogeneous Trangient Fluorescence (HTRF)
A general note: Changes in cAMP serve as a functional read-out for many G protein-coupled receptors.

Assay [2] addresses T1, DP receptor. Put plainly: Receptor binding assay, [3H]-PGD2, platelet membrane. How it is done: 2) Receptor Binding Assay
A prepared WP was homogenated and a membrane fraction was collected with high-speed centrifugation. A compound of the present invention was added to the plate and [^3H]-PGD2 was also added. A platelet membrane, a protein concentration is 2 mg/mL, was added and mixed in the plate, and placed on ice for 2 hours. The reaction solution was transferred to a low protein-adsorptive filter and washed with a wash solution eight times using a cell harvester. After the final washing, water was removed sufficiently, and scintillator was added. DP inhibitory activity was investigated by measuring [^3H] by using Micro Beta.

In assay [3] the test system is OVA asthma model of rat. The assay is described as follows: OVA asthma model of rat: increased hyperresponsive airway (acetylcholine). The note with it: BN rats, 10 mg/kg p.o. once a day for three days, vs control group, AUC of acetylcholine response curve. Type of assay: in vivo, Brown Norway (BN) Rats. How it is done: (§1) Brown Norway (BN) Rats were sensitized by i.p. administration of 0.1 mg/mL of ovalbumin (OVA) and 1 mg of aluminum hydroxide gel. A solution of 1% OVA was aerosolized by ultrasonic nebulizer (NE-U17) and the rats were subjected to inhalation exposure of the aerosol for 30 minutes in an exposing chamber 12, 19, 26 and 33 days after the sensitization. One hour before the 4th exposure of the antigen, compounds of the present invention were administered in a dose of 10 mg/kg p.o. once a day for three days consecutively. In a control group, 0.5% of methyl cellulose was administered in place of the compound of the present invention.
Under pentobarbital anesthesia (80 mg/kg, i.p.), acetylcholine (3.9, 7.8, 15.6, 31.3, 62.5, 125, 250 and 500 μg/kg) was injected to jugular vein of the rats successively from a lower dose at intervals of 5 minutes three days after the fourth exposure to the antigen, and immediate contractile reaction of airways (an increase of insufflation pressure) was measured by a modified method of Konnzett & Rössler. Inhibition rate of increased hyperresponsive airway against the control group was calculated based on area under the curve (AUC) obtained from concentration-response curve of acetylcholine.

In assay [4] the test system is OVA asthma model of rat. Put plainly: OVA asthma model of rat: infiltration of inflammatory cells in bronchoalveolar washings. Type of assay: in vivo, Brown Norway (BN) Rats. Conditions: BN rats, 10 mg/kg p.o. once a day for three days, total cell number in bronchoalveolar washings vs control group. Here is the method:
as §1
(§2) After the measurement of increased hyperresponsive airway was completed, bronchoalveoli of the rats were washed with 5 mL of saline three times. Total cell number in the washings was counted by a hemacytometer under light microscope, and inhibition rates of infiltration of inflammatory cells against the control group were calculated. Further, mucin in the airway lavage fluid was measured by ELISA method using jacalin, a mucin-binding lectin, and the inhibition rates of mucus-secretion against the control group were calculated.

Assay [5] deals with OVA asthma model of rat. Put plainly: OVA asthma model of rat: mucus-secretion (mucin in airway lavage fluid, ELISA). Type of assay: in vivo, Brown Norway (BN) Rats. The note with it: BN rats, 10 mg/kg p.o. once a day for three days, mucin in airway lavage fluid by ELISA vs control group. Here is the method:
as §1, §2
Background: In an ELISA, binding on a coated surface is turned into a signal by an enzyme label.

T1 sequence (Q13258 whole entry): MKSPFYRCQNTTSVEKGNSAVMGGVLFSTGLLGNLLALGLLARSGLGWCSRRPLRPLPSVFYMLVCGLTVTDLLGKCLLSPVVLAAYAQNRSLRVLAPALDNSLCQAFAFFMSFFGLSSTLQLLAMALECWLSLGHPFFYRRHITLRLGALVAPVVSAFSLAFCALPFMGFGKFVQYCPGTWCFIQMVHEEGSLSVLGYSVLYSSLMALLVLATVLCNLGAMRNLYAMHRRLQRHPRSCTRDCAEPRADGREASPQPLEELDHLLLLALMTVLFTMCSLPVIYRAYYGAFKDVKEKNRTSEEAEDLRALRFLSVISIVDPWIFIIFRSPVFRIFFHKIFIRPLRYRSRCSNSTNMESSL

For orientation: Ki means the equilibrium dissociation constant of an inhibitor or competing ligand from its target. The low end stands for tighter binding, the high end for weaker binding. Take `CC(C)Oc1ccc(S(=O)(=O)N2CCC(n3cc(CC(=O)O)c4ccccc43)CC2)cc1` [Compound I-1]: the IC50 on DP receptor [1] was 4.7 nM. This compound returned a Ki at DP receptor [2] of 7.7 nM. In the assay with OVA asthma model of rat [3], the “inhibition rate (%) airway hyperresponsiveness” value is 43%. Further, the “inhibition rate (%) infiltration of inflammatory cells” value (from here on “inhibition rate (%) infiltration”) in the assay on OVA asthma model of rat [4] is listed as 58%. In addition, the “inhibition rate (%) mucus-secretion” value in the assay on OVA asthma model of rat [5] came out at 52%. Take `CC(C)Oc1ccc(S(=O)(=O)N2CCC(n3cc(CC(=O)O)c4cc(Cl)ccc43)CC2)cc1` [Compound I-5]: the IC50 on DP receptor [1] was found to be 4.1 nM. The compound also displayed a Ki at DP receptor [2] of 22 nM. Consider `CCOc1ccc(S(=O)(=O)N2CCC(n3cc(CC(=O)O)c4cc(Cl)ccc43)CC2)cc1` [Compound I-6], for which, at DP receptor [1], the IC50 is 4.8 nM.

Take `CC(C)Oc1ccc(S(=O)(=O)N2CCC(n3cc(CC(=O)O)c4cc(Cl)ccc43)C2)cc1` (centres unmarked) [Compound I-7]: on DP receptor [1], the IC50 came to 1.8 nM.

On to `CCOc1ccc(S(=O)(=O)N2CCC(n3cc(CC(=O)O)c4cc(Cl)ccc43)C2)cc1` (centres unmarked) [Compound I-8], for which, on DP receptor [1], the IC50 is 4.9 nM. Same read-out and setting: the figure for `CC(C)Oc1ccc(S(=O)(=O)N2CCC(n3cc(CC(=O)O)c4ccc(Cl)cc43)CC2)cc1` [Compound I-9] is 2 nM. The same measure, in the same setting: next, `CCOc1ccc(S(=O)(=O)N2CCC(n3cc(CC(=O)O)c4ccc(Cl)cc43)CC2)cc1` [Compound I-10]: 6.9 nM. With `CC(C)Oc1ccc(S(=O)(=O)N2CCC(n3cc(CC(=O)O)c4ccc(Cl)cc43)C2)cc1` (centres unmarked) [Compound I-11], the IC50 on DP receptor [1] turned out to be 4.9 nM. Further, the “inhibition rate (%) airway hyperresponsiveness” value in the assay with OVA asthma model of rat [3] is on record as 77%. The “inhibition rate (%) infiltration” value in the assay with OVA asthma model of rat [4] was determined as 56%. Besides, in the assay with OVA asthma model of rat [5], the “inhibition rate (%) mucus-secretion” value is 30%. `CCOc1ccc(S(=O)(=O)N2CCC(n3cc(CC(=O)O)c4ccc(Cl)cc43)C2)cc1` (centres unmarked) [Compound I-12]: the IC50 on DP receptor [1] was found to be 6.9 nM. As to `CC(C)Oc1ccc(S(=O)(=O)N2CCC(n3cc(CC(=O)O)c4cc(F)ccc43)CC2)cc1` [Compound I-14], the IC50 at DP receptor [1] was found to be 2.2 nM. On DP receptor [2], this compound showed a Ki of 5.6 nM.

Take `CC(C)Oc1ccc(S(=O)(=O)N2CCC(n3cc(CC(=O)O)c4ccc(F)cc43)CC2)cc1` [Compound I-16]: the IC50 on DP receptor [1] is 1.3 nM.

As to `CC(C)Oc1ccc(S(=O)(=O)N2CC[C@@H](n3cc(CC(=O)O)c4ccccc43)C2)cc1` [Compound I-20], the IC50 on DP receptor [1] is 3.8 nM.

As for `CC(C)Oc1ccc(S(=O)(=O)N2CC[C@H](n3nc(CC(=O)O)c4cc(Cl)ccc43)C2)cc1` [Compound I-21], the IC50 on DP receptor [1] is 3 nM.

For the compound `CC(C)Oc1ccc(S(=O)(=O)N2CCC(n3cc(C(=O)O)c4ccccc43)CC2)cc1` [Compound I-23], the IC50 at DP receptor [1] is 1.6 nM. In addition, the affinity on DP receptor [2], expressed as Ki, was 1.4 nM. Besides, in the assay with OVA asthma model of rat [3], the “inhibition rate (%) airway hyperresponsiveness” value worked out at 46%. Further, the “inhibition rate (%) infiltration” value in the assay on OVA asthma model of rat [4] worked out at 79%. Moreover, the “inhibition rate (%) mucus-secretion” value in the assay with OVA asthma model of rat [5] was found to be 72%.

`CC(C)Oc1ccc(S(=O)(=O)N2CC[C@@H](n3cc(CC(=O)O)c4ccc(Cl)cc43)C2)cc1` [Compound I-30]: on DP receptor [1], the IC50 is 1.2 nM. This compound gave a Ki on DP receptor [2] of 5.4 nM. For `CC(C)Oc1ccc(S(=O)(=O)N2CC[C@@H](n3cc(CC(=O)O)c4ccc(F)cc43)C2)cc1` [Compound I-31], in that order: 2.9 nM and 4.3 nM. Consider `CC(C)Oc1ccc(S(=O)(=O)N2CC[C@@H](n3cc(C(=O)O)c4ccc(Cl)cc43)C2)cc1` [Compound I-32], for which the IC50 on DP receptor [1] amounted to 7 nM.
